Data from PMC3038857, “Using Nuclear Receptor Activity to Stratify Hepatocarcinogens” (PLoS ONE, 2011).
Where two headings read alike, the source gives them in different places.

How the values were obtained:
liver = conditions: cited from earlier work
[1] = biological target: T1, ESR1 (estrogen receptor 1) (Homo sapiens, UniProt P03372); assay: ATG_ERa_TRANS: Factorial reporter gene assay (HepG2); type: cell-based; conditions: HepG2 reporter
T1 construct: expressed in transfected cells; host or cells: HepG2
T1 sequence (P03372 whole entry): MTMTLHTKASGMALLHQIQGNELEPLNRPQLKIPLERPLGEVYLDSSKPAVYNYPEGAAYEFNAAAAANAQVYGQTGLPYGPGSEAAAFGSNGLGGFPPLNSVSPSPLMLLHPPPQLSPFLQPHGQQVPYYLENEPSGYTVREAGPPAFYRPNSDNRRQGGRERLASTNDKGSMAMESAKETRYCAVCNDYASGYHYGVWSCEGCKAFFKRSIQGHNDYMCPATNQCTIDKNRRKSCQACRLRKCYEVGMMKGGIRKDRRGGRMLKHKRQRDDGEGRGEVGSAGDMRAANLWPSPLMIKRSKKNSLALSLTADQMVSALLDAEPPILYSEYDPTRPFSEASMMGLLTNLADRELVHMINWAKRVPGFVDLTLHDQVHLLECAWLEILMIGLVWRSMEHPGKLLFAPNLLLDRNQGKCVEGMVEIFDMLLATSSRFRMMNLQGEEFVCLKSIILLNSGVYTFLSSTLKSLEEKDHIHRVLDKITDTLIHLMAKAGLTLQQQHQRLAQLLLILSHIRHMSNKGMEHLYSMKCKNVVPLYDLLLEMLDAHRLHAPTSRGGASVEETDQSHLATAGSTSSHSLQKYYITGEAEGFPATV
Procedure, shortened: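 HepG2 cells transfected with multiplexed reporter libraries: cis-acting binding-site reporters (CIS) and a one-hybrid nuclear-receptor trans system (TRANS). Chemicals tested at seven concentrations, starting at the maximum tolerated concentration with three-fold serial dilutions.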

[2] = biological target: T1, ESR1 (estrogen receptor 1); assay: ATG_ERE_CIS: Factorial reporter gene assay (HepG2); type: cell-based; conditions: HepG2 reporter
Experimental: (§1) A multiple reporter transcription unit (MRTU) library consisting of 48 transcription factor binding sites was transfected into the HepG2 human liver hepatoma cell line. In addition to the cis-acting reporter genes (CIS), a modification of the approach was used to generate a trans-system (TRANS) with a mammalian one-hybrid assay consisting of an additional 25 MRTU library reporting the activity of nuclear receptor super-family members. […] These assays were performed by Attagene Inc. (Morrisville NC) under contract to EPA.
(§2) In addition to the cis-acting reporter genes (CIS), a modification of the approach was used to generate a trans-system (TRANS) with a mammalian one-hybrid assay consisting of an additional 25 MRTU library reporting the activity of nuclear receptor super-family members. […] Chemicals were then tested in the CIS and TRANS assays at seven concentrations starting at the MTC and followed by three-fold serial dilutions. These assays were performed by Attagene Inc. (Morrisville NC) under contract to EPA. Detailed description of the methods, data and analysis methods for this dataset will be presented in a separate publication.

[3] = biological target: T2, PPARG (peroxisome proliferator-activated receptor gamma) (Homo sapiens, UniProt P37231); assay: ATG_PPARg_TRANS: Factorial reporter gene assay (HepG2); type: cell-based; conditions: HepG2 reporter
T2 construct: expressed in transfected cells; host or cells: HepG2
T2 sequence (P37231 1-505): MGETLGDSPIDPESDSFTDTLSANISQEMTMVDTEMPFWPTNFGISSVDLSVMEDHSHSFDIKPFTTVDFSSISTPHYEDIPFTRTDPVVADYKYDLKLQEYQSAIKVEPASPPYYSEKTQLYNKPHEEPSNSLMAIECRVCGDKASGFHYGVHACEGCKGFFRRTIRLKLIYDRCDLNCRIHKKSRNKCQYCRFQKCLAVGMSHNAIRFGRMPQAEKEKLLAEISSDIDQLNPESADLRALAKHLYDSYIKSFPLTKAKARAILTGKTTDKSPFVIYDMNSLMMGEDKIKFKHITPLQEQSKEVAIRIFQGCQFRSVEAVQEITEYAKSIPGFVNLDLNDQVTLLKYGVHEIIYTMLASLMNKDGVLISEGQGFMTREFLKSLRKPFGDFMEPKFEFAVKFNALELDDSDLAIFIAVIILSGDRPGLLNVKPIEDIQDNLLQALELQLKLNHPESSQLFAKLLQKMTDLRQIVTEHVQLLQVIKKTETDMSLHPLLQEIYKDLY
Procedure, shortened: (§3)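 Transfected HepG2 line; multiplexed reporter read-out. PXRE = cis library (48 TF sites); ERRg/FXR/PPARg = trans one-hybrid library (25 units). Dose series of 7, MTC downward by 3x.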

[4] = biological target: T3, RXRB (retinoid X receptor, beta) (Homo sapiens, UniProt P28702); assay: ATG_RXRb_TRANS: Factorial reporter gene assay (HepG2); type: cell-based; conditions: HepG2 reporter
T3 construct: expressed in transfected cells; host or cells: HepG2
T3 sequence (P28702 1-533): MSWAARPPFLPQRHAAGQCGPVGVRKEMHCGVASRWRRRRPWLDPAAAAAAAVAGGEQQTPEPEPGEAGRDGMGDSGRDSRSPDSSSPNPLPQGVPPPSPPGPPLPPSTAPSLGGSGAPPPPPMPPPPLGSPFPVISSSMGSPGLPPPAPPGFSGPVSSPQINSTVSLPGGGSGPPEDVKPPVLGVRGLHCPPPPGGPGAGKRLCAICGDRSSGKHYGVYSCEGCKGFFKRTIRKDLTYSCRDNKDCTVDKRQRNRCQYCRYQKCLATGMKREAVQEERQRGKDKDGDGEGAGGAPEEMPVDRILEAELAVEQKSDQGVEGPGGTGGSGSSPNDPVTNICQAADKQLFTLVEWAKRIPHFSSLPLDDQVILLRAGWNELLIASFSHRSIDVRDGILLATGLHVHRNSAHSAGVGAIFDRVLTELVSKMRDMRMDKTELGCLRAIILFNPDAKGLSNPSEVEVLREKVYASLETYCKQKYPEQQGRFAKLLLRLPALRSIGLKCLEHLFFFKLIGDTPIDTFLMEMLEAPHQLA
Experimental: as §1, §2

PXR (NR1I2) [5] = biological target: T4, PXR (NR1I2) (Homo sapiens, UniProt O75469); assay: NVS_NR_hPXR: Human PXR Fluormone PXR (SXR) green (cell-free HTS); type: binding
T4 sequence (O75469 1-434): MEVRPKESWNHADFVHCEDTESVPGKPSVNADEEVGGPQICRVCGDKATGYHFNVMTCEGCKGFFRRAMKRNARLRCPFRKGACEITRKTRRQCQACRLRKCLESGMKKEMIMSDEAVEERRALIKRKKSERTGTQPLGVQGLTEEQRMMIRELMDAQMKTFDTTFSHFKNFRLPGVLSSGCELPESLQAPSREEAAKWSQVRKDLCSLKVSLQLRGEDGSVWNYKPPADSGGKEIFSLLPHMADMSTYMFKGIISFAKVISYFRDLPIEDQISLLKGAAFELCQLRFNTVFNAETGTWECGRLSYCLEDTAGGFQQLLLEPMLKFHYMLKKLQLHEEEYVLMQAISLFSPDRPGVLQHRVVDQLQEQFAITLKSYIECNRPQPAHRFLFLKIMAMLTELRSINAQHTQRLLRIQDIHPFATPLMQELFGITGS
Procedure, shortened: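 Responses were normalized to same-plate solvent controls as percent of neutral control. AC50 values came from Hill-equation fits of concentration-response curves.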

Rat Liver [6] = conditions: chronic study, rat liver; ref ToxRefDB; cited from earlier work
Rat Liver [7] = conditions: chronic study, rat liver; ref ToxRefDB; cited from earlier work; remark: listed apart in the source
Rat Liver [8] = conditions: chronic study, rat liver; ref ToxRefDB; cited from earlier work; remark: listed apart in the source
CAR (NR1I3) = biological target: T5, CAR (NR1I3) (Homo sapiens, UniProt Q14994); assay: ATG_CAR_TRANS: Factorial reporter gene assay (HepG2); type: cell-based; set-up: endogenous in cells; host or cells: HepG2; conditions: HepG2 reporter
T5 sequence (Q14994 1-352): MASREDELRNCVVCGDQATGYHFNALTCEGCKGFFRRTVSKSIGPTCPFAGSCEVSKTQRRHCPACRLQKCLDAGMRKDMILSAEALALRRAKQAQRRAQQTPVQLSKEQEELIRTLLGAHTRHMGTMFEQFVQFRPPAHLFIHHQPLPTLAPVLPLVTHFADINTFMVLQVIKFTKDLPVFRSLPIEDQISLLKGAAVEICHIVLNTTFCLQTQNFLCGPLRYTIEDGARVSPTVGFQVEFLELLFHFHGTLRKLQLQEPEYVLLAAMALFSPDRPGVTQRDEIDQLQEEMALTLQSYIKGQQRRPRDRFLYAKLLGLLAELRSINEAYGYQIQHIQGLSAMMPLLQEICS
Experimental: as §1, §2

PXR (NR1I2) [9] = biological target: T4, PXR (NR1I2); assay: ATG_PXRE_CIS: Factorial reporter gene assay (HepG2); type: cell-based; set-up: endogenous in cells; host or cells: HepG2; conditions: HepG2 reporter
Procedure, shortened: as §3

AhR = assay: Aggregate nuclear receptor activity: AhR; conditions: aggregate human NR activity, in words
Source text: (§4) To summarize the activity of chemicals across the NR superfamily we aggregated the ToxCast assays for genes and NR groups as follows: retinoic X receptor-like (RXR; [drawing 5]; NR2B); peroxisome proliferator-activated receptor-like (PPAR; [drawing 6]; NR1C); constitutive androstane receptor ( [drawing 7]; [drawing 8]; [drawing 9] ); pregnane X receptor ( [drawing 10]; [drawing 11] ); liver X receptor-like (LXR; [drawing 12] , FXR; NR1H); and steroid receptor-like (SR; [drawing 13] , [drawing 14] , [drawing 15] ). These are shown visually in Figure 1(a). As there were differences in the number and types of assays for each group, aggregate activity was calculated as the average potency across the assays measured by the AC50 or LEC (described in Methods). This approach aggregated NR binding, activation, agonism or antagonism results into a single assessment of activity.
(§5) All data used in this analysis are publicly available from the ToxCast website (www.epa.gov/toxcast). The analysis was conducted using the R statistical language (www.r-project.org). For each chemical [drawing 77] , and assay [drawing 78] combination we derived either the AC50 (50% maximal activity concentration) or LEC (Lowest Effective Concentration) in [drawing 79] M denoted as, [drawing 80] . All chemicals are provided in Dataset S3 and all assays are given in Dataset S1. The procedure for evaluating the quality of [drawing 81] are described in the supplementary methods (Text S1) and all assay results are provided in Dataset S2. In order to facilitate comparison across the assays the [drawing 82] were transformed by the formula, [drawing 83] where [drawing 84] represents a the potency on an ascending scale, and [drawing 85] is the maximum concentration (lowest potency) across the data set.
(§6) The aggregate NR activity [drawing 86] , where [drawing 87] , was calculated using assays [drawing 88] . The aggregate scaled NR activity score for each chemical [drawing 89] was calculated as the average concentration value across the assays, scaled by the maximum value across all chemicals using Equation 1. [drawing 90] (1)

CAR = assay: Aggregate nuclear receptor activity: CAR; conditions: aggregate human NR activity, in words
Source text: as §4, §5, §6

PXR = assay: Aggregate nuclear receptor activity: PXR; set-up: species or system human; conditions: aggregate human NR activity, in words
Source text: as §4, §5, §6

PPAR = assay: Aggregate nuclear receptor activity: PPAR; conditions: aggregate human NR activity, in words
Source text: as §4, §5, §6

[10] = tested on: SR (steroid receptor-like); assay: Aggregate nuclear receptor activity: SR; conditions: aggregate human NR activity, in words
Source text: as §4, §5, §6

[11] = 2-year chronic feeding studies in both rat and mouse, ToxRefDB ref 5

SMILES: CCOP(=S)(Oc1cnc(C(C)(C)C)nc1)OC(C)C (stereo not shown) [Tebupirimfos, O-(2-tert-butylpyrimidin-5-yl) O-ethyl O-isopropyl thiophosphate]
- liver injury (liver histopathology) (liver; [11]): negative for any liver injury

SMILES: O=[N+]([O-])c1c(Cl)c(Cl)c(Cl)c(Cl)c1Cl [r278]
- ATG_ERa_TRANS [1]: 4.284
- ATG_ERE_CIS [2]: 4.854
- ATG_PPARg_TRANS [3]: 4.409
- ATG_RXRb_TRANS [4]: 4.387
- NVS_NR_hPXR (PXR (NR1I2) [5]): 4.314
- CHR_Rat_Liver_1_AnyLesion (Rat Liver [6]): 6
- CHR_Rat_Liver_2_PreneoplasticLesion (Rat Liver [7]): 6
- CHR_Rat_Liver_3_NeoplasticLesion (Rat Liver [8]): 0
- ATG_CAR_TRANS (CAR (NR1I3)): 4.377
- ATG_PXRE_CIS (PXR (NR1I2) [9]): 4.959

SMILES: CCNP(=S)(OC)O/C(C)=C/C(=O)OC(C)C (stereo not shown) [Propetamphos, isopropyl (2E)-3-{[(ethylamino)(methoxy)phosphorothioyl]oxy}but-2-enoate]
- liver injury (liver histopathology) (liver; [11]): negative for any liver injury

SMILES: Cc1ccc(-c2c(Cl)nc(C#N)n2S(=O)(=O)N(C)C)cc1 [Cyazofamid, 4-chloro-2-cyano-N,N-dimethyl-5-(4-methylphenyl)-1H-imidazole-1-sulfonamide]
- liver injury (liver histopathology) (liver; in vivo): negative for any liver injury

SMILES: Cc1nn(C)c(Oc2ccccc2)c1/C=N/OCc1ccc(C(=O)OC(C)(C)C)cc1 [(Z,E)-Fenpyroximate, tert-butyl 4-[({[(1E)-(1,3-dimethyl-5-phenoxy-1H-pyrazol-4-yl)methylene]amino}oxy)methyl]benzoate]
- liver injury (liver histopathology) (liver; [11]): negative for any liver injury

SMILES: C=CCOC(Cn1ccnc1)c1ccc(Cl)cc1Cl (stereo not shown) [Imazalil, 1-[2-(allyloxy)-2-(2,4-dichlorophenyl)ethyl]-1H-imidazole]
- activity with AhR (AhR): some activity
- activity with CAR (CAR): some activity
- activity with PXR (PXR): some activity
- activity with PPAR (PPAR): most consistently active
- activity with SR [10]: some activity

SMILES: C=C(C)CN(CC)c1c([N+](=O)[O-])cc(C(F)(F)F)cc1[N+](=O)[O-] [Ethalfluralin, N-ethyl-N-(2-methylprop-2-en-1-yl)-2,6-dinitro-4-(trifluoromethyl)aniline]
- liver injury (liver histopathology) (liver; [11]): negative for any liver injury

SMILES: CCCN(CCOc1c(Cl)cc(Cl)cc1Cl)C(=O)n1ccnc1 [Prochloraz, N-propyl-N-[2-(2,4,6-trichlorophenoxy)ethyl]-1H-imidazole-1-carboxamide]
- activity with CAR (CAR): most consistently active
- activity with PXR (PXR): active

SMILES: COP(=S)(OC)Oc1ccc(SC)c(C)c1 [Fenthion, O,O-dimethyl O-[3-methyl-4-(methylthio)phenyl] thiophosphate]
- liver injury (liver histopathology) (liver; [11]): negative for any liver injury

SMILES: CCOP(=S)(OCC)Oc1nc(Cl)n(C(C)C)n1 [Isazofos, O-(5-chloro-1-isopropyl-1H-1,2,4-triazol-3-yl) O,O-diethyl thiophosphate]
- liver injury (liver histopathology) (liver; [11]): negative for any liver injury

SMILES: CC1(C(=O)Nc2ccc(O)c(Cl)c2Cl)CCCCC1 [Fenhexamid, N-(2,3-dichloro-4-hydroxyphenyl)-1-methylcyclohexanecarboxamide]
- liver injury (liver histopathology) (liver; in vivo): negative for any liver injury

SMILES: CC1(C)C(C=C(Cl)Cl)C1C(=O)OCc1cccc(Oc2ccccc2)c1 (stereo not shown) [Permethrin, [3-(phenyloxy)phenyl]methyl 3-(2,2-dichloroethenyl)-2,2-dimethylcyclopropanecarboxylate]
- activity with AhR (AhR): active
- activity with CAR (CAR): most consistently active
- activity with PXR (PXR): active

SMILES: C#CC(C)(C)NC(=O)c1cc(Cl)cc(Cl)c1 [Propyzamide, 3,5-dichloro-N-(1,1-dimethylprop-2-yn-1-yl)benzamide]
- activity with AhR (AhR): active
- activity with CAR (CAR): most consistently active
- activity with PXR (PXR): active
